Laboratory results taken from patent US7351811B2, “Gene SCC-112 and diagnostic and therapeutic uses thereof” (Georgetown University, priority 2001, dated 2008).
Values joined by “and” are separate entries in the source; they are usually repeats but may differ in a detail not shown here. Equal entries are not always repeated.

Experiments:
Format in all cases: cell-based, human
[1] = system: SCC-112 mRNA in LnCap prostate cancer cells; assay: Northern hybridization of SCC-112 mRNA in androgen-treated LNCaP cells
Description: FIG. 5. Androgen induces the steady state levels of SCC-112 mRNA in prostate cancer cells. LNcap prostate cancer cells were grown in IMEM with 5% FBS. Logarithmically growing cells were switched to medium containing 5% charcoal stripped serum […] before the experiment. Indicated concentrations of synthetic androgen, R1881 (NEN) were added for 48 h. Total RNA was isolated and subjected to Northern hybridization using SCC-112 as probe.
FIG. 6. […] LnCAP cells were grown in IMEM medium containing 5% fetal bovine serum. Medium was replaced with 5% charcoal-stripped serum containing medium for 24 h, followed by addition of indicated concentration of synthetic androgen (R1881) for 48 h. Total RN A was isolated from various treatments and analyzed by northern blotting and hybridization using a radiolabeled SCC-112 cDNA fragment (1568 bp-6744 bp).
(§1) RNA Isolation and Northern Hybridization: MDA-MB 435 cells were synchronized at different cell cycle stages, and total RNA was isolated with Trizol reagent according to the manufacturer's instructions (Invitrogen Life technologies, Inc.). […] The autoradiographs were scanned and bands were quantified using IMAGEQUANT software (Molecular Dynamics, Sunnyvale, Calif.).

[2] = system: SCC-112 protein in MDA-MB 435 cells; assay: Western blot of SCC-112 protein in nocodazole-arrested (G2/M) MDA-MB 435 cells; details: 100 ng/ml, 16 h, G2/M phase
Description: (§2) (C) Expression of SCC-112 mRNA and protein in G2/M phase. Logarithmically growing cells were arrested at G2/M phase using 100 ng/ml of nocodazole for 16 h (+). SCC-112 mRNA (upper) and protein levels (lower) were quantified as above. The SCC-112. mRNA level was ˜2 fold higher during G2/M phase (+) as compared to untreated cells (−). SCC-112 protein level was elevated during G2/M phase (˜5 fold) in nocodazole treated cells (+) as compared to untreated cells (−).
Western Blot Analysis: The cells were rinsed with ice-cold PBS and scrapped in lysis solution containing Tris (20 mM, pH 8.0), NaCl (150 mM), 1% NP-40 (w/v), 10% glycerol (w/v), 1 mM phenylmethylsulphonyl fluoride (PMSF), aprotinin (20 ug/ml) and leupeptin (20 ug/ml). The cells were lysed for 45 min with vigorous shaking at 4° C. and centrifuged at 12,000×g for 15 min at 4° C. Fifty micrograms of total protein were heat denatured by boiling for 5 min in SDS-PAGE loading buffer. After SDS-PAGE, the proteins were electrophoretically transferred on to PVDF membrane (Millipore). […]
(§3) Cell Synchronization and Flow Cytometry: Logarithmically growing MDA-MB 435 cells were treated with 4 ug/ml aphidicolin, a DNA polymerase-a inhibitor, for 24 h to synchronize cells at G1/S phase. […] The cell cycle distribution profiles were determined using a Fluorescence Activated Cell Sorter (Becton Dickinson).

[3] = system: SCC-112 mRNA in MDA-MB 435 cells; assay: Northern hybridization of SCC-112 mRNA in nocodazole-arrested (G2/M) MDA-MB 435 cells; details: 100 ng/ml, 16 h, G2/M phase
Description: as §2, §1, §3

| Compound | induction of steady state level of SCC-112 transcript (~8.0 kb) ([1]; LNCaP cells, charcoal-stripped serum, 1 nM to 100 nM, 48 h, vs untreated cells) | effect on SCC-112 mRNA expression (in words) ([1]; LNCap cells, FIG. 5) | SCC-112 protein level vs untreated cells [2] [fold] | SCC-112 mRNA level vs untreated cells [3] [fold] |
| --- | --- | --- | --- | --- |
| C[C@]1(O)CC[C@H]2[C@@H]3CCC4=CC(=O)CCC4=C3C=C[C@@]21C [R1881] | 4-7 fold and 4- to 7 fold | induces SCC-112 mRNA expression | – | – |
| COC(=O)Nc1nc2ccc(C(=O)c3cccs3)cc2[nH]1 [nocodazole] | – | – | ~5 | ~2 |
